IC50 data for 40 molecules are collected here from patent US20240158385A1, “NOVEL COMPOUNDS” (Cerevance, Inc., priority 2021, published 2024).

Usually pIC50 stands for −log10 of the IC50, conventionally taken in molar units.

pIC50: −log10 of the molar value. Bounds are passed on as bounds.

In one test the target is T1, human KCNK13 (Homo sapiens, UniProt Q9HB14).
T1 construct: expressed in transfected cells
T1 sequence (Q9HB14 1-408): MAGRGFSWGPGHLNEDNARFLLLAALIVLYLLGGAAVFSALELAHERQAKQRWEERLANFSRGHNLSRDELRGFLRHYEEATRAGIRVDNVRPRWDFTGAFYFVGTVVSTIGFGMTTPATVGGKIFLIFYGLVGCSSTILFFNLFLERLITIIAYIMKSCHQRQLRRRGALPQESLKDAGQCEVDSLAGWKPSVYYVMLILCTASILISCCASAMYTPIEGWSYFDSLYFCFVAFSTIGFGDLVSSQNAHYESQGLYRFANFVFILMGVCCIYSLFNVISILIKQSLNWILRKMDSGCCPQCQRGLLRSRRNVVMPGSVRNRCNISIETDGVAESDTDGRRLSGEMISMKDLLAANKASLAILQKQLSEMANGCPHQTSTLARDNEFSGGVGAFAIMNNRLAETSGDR
As to the kind of experiment: KCNK13 antagonist activity, thallium (Tl+) flux FLIPR assay. In kind it is cell-based.
Settings: not given
The procedure, abridged:
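HEK 293 cells stably expressing human KCNK13 loaded with Tl+-sensitive dye for 1 h at room temperature. Compounds (10-point half-log curves) preincubated 15 min before thallium sulfate stimulus, fluorescence tracked by FLIPR. IC50 from ten-point curves, each point the mean of two wells.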
Regarding `Nc1nonc1-c1nc2ncc(F)cc2n1Cc1ccc(Cl)nc1` [Example 159, 4-(1-((6-chloropyridin-3-yl)methyl)-6-fluoro-1H-imidazo[4,5-b]pyridin-2-yl)-1,2,5-oxadiazol-3-amine], the pIC50 was over 7.30.

Still in this test, the particulars now being: HEK 293 cells stably expressing human KCNK13; Tl+ sensitive dye, FLIPR; compounds 15 minutes prior to thallium sulfate; 10 point half log curves from 10 PM; read-out: hKCNK13 IC50.
As for `Cc1ocnc1-c1nc2ccccc2n1Cc1cccnc1` [Example 103, 5-methyl-4-[1-(pyridin-3-ylmethyl)benzimidazol-2-yl]oxazole], the pIC50 was over 6.70.
With `Cc1conc1-c1nc2ccccc2n1Cc1cccnc1` [Example 104, 4-methyl-3-[1-(pyridin-3-ylmethyl)benzimidazol-2-yl]isoxazole], the pIC50 is over 6.70.
On the same count and under the same terms, for `CCc1nsnc1-c1nc2ccccc2n1Cc1cccnc1` [Example 105, 3-ethyl-4-[1-(pyridin-3-ylmethyl)benzimidazol-2-yl]-1,2,5-thiadiazole] the value was over 6.70; for `Nc1nonc1-c1nc2ccccc2n1Cc1ccncn1` [Example 106, 4-[1-(pyrimidin-4-ylmethyl)benzimidazol-2-yl]-1,2,5-oxadiazol-3-amine], over 6.70; for `Nc1nonc1-c1nc2ccccc2n1Cc1ccnnc1` [Example 107, 4-[1-(pyridazin-4-ylmethyl)benzimidazol-2-yl]-1,2,5-oxadiazol-3-amine], over 6.70.
On the same count and under the same terms, for `Fc1nsnc1-c1nc2ccccc2n1Cc1cccnc1` [Example 108, 3-fluoro-4-[1-(pyridin-3-ylmethyl)benzimidazol-2-yl]-1,2,5-thiadiazole] the value was over 6.30; for `Nc1nonc1-c1nc2ccccc2n1Cc1cccnc1C(F)(F)F` [Example 109, 4-[1-[[2-(trifluoromethyl)pyridin-3-yl]methyl]benzimidazol-2-yl]-1,2,5-oxadiazol-3-amine], over 6.30; for `Cc1nonc1-c1nc2ccncc2n1Cc1cccnc1` [Example 110, 3-methyl-4-[3-(pyridin-3-ylmethyl)imidazo[4,5-c]pyridin-2-yl]-1,2,5-oxadiazole], over 6.30.
The same measure, in the same setting: for `Cc1onc(-c2nc3ccccc3n2Cc2cccnc2)c1C` [Example 111, 4,5-dimethyl-3-[1-(pyridin-3-ylmethyl)benzimidazol-2-yl]isoxazole] the value was over 6.30; for `Cc1nocc1-c1nc2ccccc2n1Cc1cccnc1` [Example 112, 3-methyl-4-[1-(pyridin-3-ylmethyl)benzimidazol-2-yl]isoxazole], over 6.30; for `Cc1cn(C)nc1-c1nc2ccccc2n1Cc1cccnc1` [Example 113, 2-(1,4-dimethylpyrazol-3-yl)-1-(pyridin-3-ylmethyl)benzimidazole], over 6.30.
Take `Cn1nccc1-c1nc2ccccc2n1Cc1cccnc1` [Example 114, 2-(1-methylpyrazol-5-yl)-1-(pyridin-3-ylmethyl)benzimidazole]: the pIC50 was over 6.00.
Regarding `Nc1nonc1-c1nc2ccccc2n1Cc1ccccn1` [Example 115, 4-[1-(pyridin-2-ylmethyl)benzimidazol-2-yl]-1,2,5-oxadiazol-3-amine], the pIC50 is over 6.00.
In the case of `CCc1nonc1-c1nc2ccccc2n1Cc1cccnc1` [Example 116, 3-ethyl-4-[1-(pyridin-3-ylmethyl)benzimidazol-2-yl]-1,2,5-oxadiazole], the pIC50 is over 6.00.
Still for that read-out and setting: for `c1coc(-c2nc3ccccc3n2Cc2ccncc2)c1` [Example 117, 2-(furan-2-yl)-1-(pyridin-4-ylmethyl)benzimidazole] the value was over 6.00.
On the same count and under the same terms, with `Brc1nsnc1-c1nc2ccccc2n1Cc1cccnc1` [Example 126, 3-bromo-4-(1-(pyridin-3-ylmethyl)benzimidazol-2-yl)-1,2,5-thiadiazole] the figure was over 7.00; with `Cc1nsnc1-c1nc2ccccc2n1Cc1cccnc1` [Example 127, 3-methyl-4-[1-(pyridin-3-ylmethyl)benzimidazol-2-yl]-1,2,5-thiadiazole], over 7.00.
Still for that read-out and setting: for `Cc1cnoc1-c1nc2ccccc2n1Cc1cccnc1` [Example 130, 4-methyl-5-[1-(pyridin-3-ylmethyl)benzimidazol-2-yl]isoxazole] the value was over 7.00; for `Nc1nonc1-c1nc2c(F)cccc2n1Cc1cncnc1` [Example 131, 4-[4-fluoro-1-(pyrimidin-5-ylmethyl)benzimidazol-2-yl]-1,2,5-oxadiazol-3-amine], over 7.00.
As to `Nc1nonc1-c1nc2cc(F)cc(F)c2n1Cc1ccncc1` [Example 136, 4-(5,7-difluoro-1-(pyridin-4-ylmethyl)-benzimidazol-2-yl)-1,2,5-oxadiazol-3-amine], the pIC50 was over 7.00.
Still for that read-out and setting: with `Cc1nsnc1-c1nc2cccc(F)c2n1Cc1cccnn1` [Example 139, 3-(7-fluoro-1-(pyridazin-3-ylmethyl)-benzimidazol-2-yl)-4-methyl-1,2,5-thiadiazole] the figure was over 7.00; with `Cc1nsnc1-c1nc2c(F)cccc2n1Cc1cccnn1` [Example 140, 3-(4-fluoro-1-(pyridazin-3-ylmethyl)-benzimidazol-2-yl)-4-methyl-1,2,5-thiadiazole], over 6.30.
As for `Nc1nonc1-c1nc2cc(F)cc(F)c2n1Cc1cccnn1` [Example 141, 4-(5,7-difluoro-1-(pyridazin-3-ylmethyl)-benzimidazol-2-yl)-1,2,5-oxadiazol-3-amine], the pIC50 is over 7.00.
In the case of `Nc1nonc1-c1nc2c(F)cc(F)cc2n1Cc1cccnn1` [Example 142, 4-(4,6-difluoro-1-(pyridazin-3-ylmethyl)-benzimidazol-2-yl)-1,2,5-oxadiazol-3-amine], the pIC50 was over 6.70.
The same measure, in the same setting: with `CNc1nsnc1-c1nc2cccc(F)c2n1Cc1cccnn1` [Example 143, 4-(7-fluoro-1-(pyridazin-3-ylmethyl)-benzimidazol-2-yl)-N-methyl-1,2,5-thiadiazol-3-amine] the figure was over 6.70.
The same measure, in the same setting: with `CNc1nsnc1-c1nc2c(F)cccc2n1Cc1cccnn1` [Example 144, 4-(4-fluoro-1-(pyridazin-3-ylmethyl)-benzimidazol-2-yl)-N-methyl-1,2,5-thiadiazol-3-amine] the figure was over 6.00; with `Nc1nonc1-c1nc2ccc(F)c(F)c2n1Cc1ccncc1` [Example 145, 4-(6,7-difluoro-1-(pyridin-4-ylmethyl)-benzimidazol-2-yl)-1,2,5-oxadiazol-3-amine], over 7.30; with `Nc1nonc1-c1nc2cccc(F)c2n1Cc1ccc(O)nn1` [Example 150, 6-((2-(4-amino-1,2,5-oxadiazol-3-yl)-7-fluoro-benzimidazol-1-yl)methyl)pyridazin-3-ol], over 6.70.
On the same count and under the same terms, with `Nc1nonc1-c1nc2c(F)ccc(F)c2n1Cc1cccnn1` [Example 154, 4-(4,7-difluoro-1-(pyridazin-3-ylmethyl)-benzimidazol-2-yl)-1,2,5-oxadiazol-3-amine] the figure was over 7.30; with `Nc1nonc1-c1nc2c(F)ccc(F)c2n1Cc1ccncc1` [Example 155, 4-(4,7-difluoro-1-(pyridin-4-ylmethyl)-benzimidazol-2-yl)-1,2,5-oxadiazol-3-amine], over 7.30.
Turning to `Nc1nocc1-c1nc2cccc(F)c2n1Cc1cccnn1` [Example 158, 4-(7-fluoro-1-(pyridazin-3-ylmethyl)-benzimidazol-2-yl)isoxazol-3-amine], the pIC50 is over 5.30.
On the same count and under the same terms, with `Nc1nonc1-c1nc2ncc(F)cc2n1Cc1cncnc1` [Example 160, 4-(6-fluoro-1-(pyrimidin-5-ylmethyl)-1H-imidazo[4,5-b]pyridin-2-yl)-1,2,5-oxadiazol-3-amine] the figure was over 6.30; with `C[C@@H](c1cccnc1)n1c(-c2nonc2N)nc2cccc(F)c21` [Example 161, (S)-4-(7-fluoro-1-(1-(pyridin-3-yl)ethyl)-benzimidazol-2-yl)-1,2,5-oxadiazol-3-amine], over 6.00.
For the molecule `CNS(=O)(=O)c1ccc(Cn2c(-c3nonc3C)nc3ccccc32)cn1` [Example 164, N-methyl-5-((2-(4-methyl-1,2,5-oxadiazol-3-yl)-benzimidazol-1-yl)methyl)pyridine-2-sulfonamide], the pIC50 was over 6.00.
On the same count and under the same terms, for `Cc1nonc1-c1nc2cccnc2n1Cc1cnc(C#N)nc1` [Example 165, 5-((2-(4-methyl-1,2,5-oxadiazol-3-yl)-3H-imidazo[4,5-b]pyridin-3-yl)methyl)pyrimidine-2-carbonitrile] the value was over 7.00; for `Nc1nonc1-c1nc2cccc(F)c2n1Cc1ccc(OC(F)(F)F)nc1` [Example 176, 4-(7-fluoro-1-((6-(trifluoromethoxy)pyridin-3-yl)methyl)-benzimidazol-2-yl)-1,2,5-oxadiazol-3-amine], over 5.30; for `N#Cc1ccc(Cn2c(-c3nonc3N)nc3cccnc32)nn1` [Example 177, 6-((2-(4-amino-1,2,5-oxadiazol-3-yl)-3H-imidazo[4,5-b]pyridin-3-yl)methyl)pyridazine-3-carbonitrile], over 6.00.
On the same count and under the same terms, for `CNc1nonc1-c1nc2cccc(F)c2n1Cc1cccnn1` [Example 178, 4-(7-fluoro-1-(pyridazin-3-ylmethyl)-benzimidazol-2-yl)-N-methyl-1,2,5-oxadiazol-3-amine] the value was over 5.30; for `Nc1nonc1-c1nc2c(F)cccc2n1Cc1cccnn1` [Example 179, 4-(4-fluoro-1-(pyridazin-3-ylmethyl)-benzimidazol-2-yl)-1,2,5-oxadiazol-3-amine], over 6.70.
